Reference: US6737383B1, “Herbicidal oxadiazolidines” (priority 1999, dated 2004)

Experiments:
bedstraw = assay: Test B pre/postemergence bedstraw; format: in vivo, Galium aparine
In short: (§1)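 Test chemicals in a non-phytotoxic solvent mixture with surfactant were sprayed preemergence onto planted seeds and postemergence onto plants 2 to 18 cm tall (1- to 4-leaf stage). After twelve to sixteen days in a greenhouse, injury was visually rated against untreated controls from 0 (no effect) to 10 (complete control).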

blackgrass = assay: Test B pre/postemergence blackgrass; format: in vivo, Alopecurus myosuroides
In short: as §1

surinam grass = assay: Test B pre/postemergence surinam grass; format: in vivo, Brachiaria decumbens
In short: as §1

cocklebur = assay: Test B pre/postemergence cocklebur; format: in vivo, Xanthium strumarium
In short: as §1

corn = assay: Test B pre/postemergence corn; format: in vivo, Zea mays
In short: as §1

crabgrass = assay: Test B pre/postemergence crabgrass; format: in vivo, Digitaria sanguinalis
In short: as §1

giant foxtail = assay: Test B pre/postemergence giant foxtail; format: in vivo, Setaria faberii
In short: as §1

pigweed = assay: Test B pre/postemergence pigweed; format: in vivo, Amaranthus retroflexus
In short: as §1

soybean = assay: Test B pre/postemergence soybean; format: in vivo, Glycine max
In short: as §1

sugar beet = assay: Test B pre/postemergence sugar beet; format: in vivo, Beta vulgaris; details: for Plant response rating, Sugarbeets: Rate 250 g/ha
In short: as §1

velvetleaf = assay: Test B pre/postemergence velvetleaf; format: in vivo, Abutilon theophrasti; details: for Plant response rating, Velvetleaf: Rate 250 g/ha
In short: as §1

wild oat = assay: Test B pre/postemergence wild oat; format: in vivo, Avena fatua; details: for Plant response rating, Wild oats: Rate 250 g/ha
In short: as §1

purple nutsedge = assay: Test B pre/postemergence purple nutsedge; format: in vivo, Cyperus rotundus
In short: as §1

rice = assay: Test B flood test rice; format: in vivo, Oryza sativa
In short: (§2)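 Plants were grown to the 2-leaf stage before treatment with test chemical, then held in a greenhouse for twelve to sixteen days. Injury was visually rated against untreated controls on a 0–10 scale, where 0 is no effect and 10 is complete control.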

smallflower flatsedge = assay: Test B flood test smallflower flatsedge; format: in vivo, Cyperus difformis
In short: as §2

bamyardgrass = assay: Test B flood test barnyardgrass; format: in vivo, Echinochloa crus-galli
In short: as §2

[1] = Postemergence, Rate 62 g/ha, scale 0 to 10, 0 is no effect, 10 is complete control
[2] = Postemergence, Rate 250 g/ha, scale 0 to 10, 0 no effect, 10 complete control
[3] = Preemergence, Rate 62 g/ha, scale 0 to 10 (0 no effect, 10 complete control)
[4] = Preemergence, Rate 125 g/ha, scale 0 to 10 (0 no effect, 10 complete control)
[5] = Preemergence, Rate 250 g/ha, scale of 0 to 10 where 0 is no effect and 10 is complete control
[6] = Preemergence, Rate 500 g/ha, scale 0 to 10 (0 no effect, 10 complete control)
[7] = Rate 125 g/ha, Postemergence, scale 0 to 10, 0 no effect, 10 complete control
[8] = Rate 500 g/ha, Postemergence, scale 0 to 10, 0 no effect, 10 complete control
[9] = Postemergence, Rate 125 g/ha, scale of 0 to 10 where 0 is no effect and 10 is complete control
[10] = Rate 62 g/ha, Postemergence, scale of 0 to 10 where 0 is no effect and 10 is complete control
[11] = Rate 250 g/ha, Postemergence, scale 0 to 10, 0 is no effect, 10 is complete control
[12] = Preemergence, Rate 125 g/ha, 0 is no effect, 10 is complete control
[13] = Preemergence, scale of 0 to 10 where 0 is no effect and 10 is complete control
[14] = Postemergence, scale 0 to 10, 0 is no effect, 10 is complete control
[15] = Postemergence (flood test species), Rate 125 g/ha, scale of 0 to 10 where 0 is no effect and 10 is complete control
[16] = Rate 62 g/ha, Postemergence section, flood test species, scale of 0 to 10 where 0 is no effect and 10 is complete control
[17] = Rate 250 g/ha, Postemergence (flood test), scale 0 to 10, 0 is no effect, 10 is complete control
[18] = Rate 500 g/ha, listed under Postemergence (flood test species), scale 0 to 10, 0 no effect, 10 complete control

CC(C)N(C(=O)n1oc(=O)n(C(C)C)c1=O)c1ccc(Cl)cc1 [Compound 114]
7: Bedstraw plant response rating (bedstraw; [8]) | Blackgrass plant response rating (blackgrass; [2]) | Plant response rating, B. signalgrass (surinam grass; [5]) | B. signalgrass plant response rating (surinam grass; Rate 500 g/ha, Postemergence, scale of 0 to 10 where 0 is no effect and 10 is complete control) | Plant response rating, Corn (corn; [5]) | Plant response rating, Crabgrass (crabgrass; [4]) | Soybean plant response rating (soybean; [8]) | Plant response rating, Sugarbeets (sugar beet; [13]) | Sugarbeets plant response rating (sugar beet; [6]) | Wild oats plant response rating (0 to 10 scale) (wild oat; [12])
6: Bedstraw plant response rating (bedstraw; [2]) | Bedstraw plant response rating (bedstraw; [7]) | Blackgrass plant response rating (blackgrass; [3]) | Sugarbeets plant response rating (0 to 10 scale) (sugar beet; [12]) | Velvetleaf plant response rating (velvetleaf; [6])
0: Bedstraw plant response rating (bedstraw; [3]) | Plant response rating, Bedstraw (bedstraw; [4]) | Plant response rating, Bedstraw (bedstraw; [5]) | Bedstraw plant response rating (bedstraw; [6]) | Blackgrass plant response rating (blackgrass; [10]) | B. signalgrass plant response rating (surinam grass; [1]) | B. signalgrass plant response rating (surinam grass; [3]) | Plant response rating, B. signalgrass (surinam grass; [4]) | B. signalgrass plant response rating (surinam grass; [7]) | Cocklebur plant response rating (cocklebur; [9]) | Cocklebur plant response rating (cocklebur; [2]) | Cocklebur plant response rating (cocklebur; [3]) | Plant response rating, Cocklebur (cocklebur; [4]) | Plant response rating, Cocklebur (cocklebur; [5]) | Cocklebur plant response rating (cocklebur; [10]) | Cocklebur plant response rating (cocklebur; [8]) | Corn plant response rating (corn; [9]) | Corn plant response rating (corn; [2]) | Corn plant response rating (corn; [3]) | Plant response rating, Corn (corn; [4]) | Corn plant response rating (corn; [10]) | Corn plant response rating (corn; [8]) | Redroot pigweed plant response rating (pigweed; [10]) | Soybean plant response rating (soybean; [3]) | Plant response rating, Soybean (soybean; [4]) | Plant response rating, Soybean (soybean; [5]) | Velvetleaf plant response rating (velvetleaf; [10]) | Wild oats plant response rating (wild oat; [9]) | Wild oats plant response rating (wild oat; [10]) | Nutsedge plant response rating (purple nutsedge; [9]) | Nutsedge plant response rating (purple nutsedge; [2]) | Nutsedge plant response rating (purple nutsedge; [3]) | Plant response rating, Nutsedge (purple nutsedge; [4]) | Plant response rating, Nutsedge (purple nutsedge; [5]) | Nutsedge plant response rating (purple nutsedge; [6]) | Nutsedge plant response rating (purple nutsedge; [10]) | Nutsedge plant response rating (purple nutsedge; [8]) | Rice plant response rating (rice; [15]) | Rice plant response rating (rice; [16]) | Plant response rating, Rice (rice; [17]) | Rice plant response rating (rice; [18]) | S. Flatsedge plant response rating (smallflower flatsedge; [15]) | S. Flatsedge plant response rating (smallflower flatsedge; [16]) | Plant response rating, S. Flatsedge (smallflower flatsedge; [17]) | S. Flatsedge plant response rating (smallflower flatsedge; [18]) | Barnyardgrass plant response rating (bamyardgrass; [1]) | Barnyardgrass plant response rating (bamyardgrass; Rate 125 g/ha, Postemergence section (flood test species), scale 0 to 10, 0 no effect, 10 complete control) | Barnyardgrass plant response rating (bamyardgrass; [18]) | Barnyardgrass plant response rating (bamyardgrass; flood test, listed under Postemergence, Rate 250 g/ha, scale 0 to 10, 0 no effect, 10 complete control)
9: Corn plant response rating (corn; [6]) | Crabgrass plant response rating (crabgrass; [2]) | Plant response rating, Crabgrass (crabgrass; [5]) | Crabgrass plant response rating (crabgrass; [6]) | Crabgrass plant response rating (crabgrass; [8]) | Giant foxtail plant response rating (giant foxtail; [9]) | Giant foxtail plant response rating (giant foxtail; [2]) | Plant response rating, Giant foxtail (giant foxtail; [4]) | Giant foxtail plant response rating (giant foxtail; [8]) | Plant response rating, Wild oats (wild oat; [13])
2: Blackgrass plant response rating (blackgrass; [9]) | Crabgrass plant response rating (crabgrass; [3]) | Crabgrass plant response rating (crabgrass; [10]) | Redroot pigweed plant response rating (pigweed; [9]) | Plant response rating, Wild oats (wild oat; [14]) | Wild oats plant response rating (wild oat; [8])
4: Sugarbeets plant response rating (sugar beet; [3]) | Plant response rating, Sugarbeets (sugar beet; [14]) | Velvetleaf plant response rating (velvetleaf; [3]) | Velvetleaf plant response rating (0 to 10 scale) (velvetleaf; [12])
3: Bedstraw plant response rating (bedstraw; [1]) | Plant response rating, Redroot pigweed (pigweed; [11]) | Redroot pigweed plant response rating (pigweed; [8]) | Soybean plant response rating (soybean; [9]) | Soybean plant response rating (soybean; [6]) | Soybean plant response rating (soybean; [10]) | Sugarbeets plant response rating (sugar beet; [9]) | Sugarbeets plant response rating (sugar beet; [10]) | Plant response rating, Velvetleaf (velvetleaf; [14]) | Velvetleaf plant response rating (velvetleaf; [8])
1: Velvetleaf plant response rating (velvetleaf; [9])
5: B. signalgrass plant response rating (surinam grass; [2]) | Giant foxtail plant response rating (giant foxtail; [3]) | Giant foxtail plant response rating (giant foxtail; [10]) | Redroot pigweed plant response rating (pigweed; [3]) | Plant response rating, Soybean (soybean; [11]) | Sugarbeets plant response rating (sugar beet; [8]) | Plant response rating, Velvetleaf (velvetleaf; [13]) | Wild oats plant response rating (wild oat; [3])
10: Plant response rating, Blackgrass (blackgrass; [5]) | Blackgrass plant response rating (blackgrass; [6]) | B. signalgrass plant response rating (surinam grass; [6]) | Plant response rating, Giant foxtail (giant foxtail; [5]) | Giant foxtail plant response rating (giant foxtail; [6]) | Plant response rating, Redroot pigweed (pigweed; [5]) | Redroot pigweed plant response rating (pigweed; [6]) | Wild oats plant response rating (wild oat; [6])
8: Plant response rating, Blackgrass (blackgrass; [4]) | Blackgrass plant response rating (blackgrass; [8]) | Crabgrass plant response rating (crabgrass; [9]) | Plant response rating, Redroot pigweed (pigweed; [4])
